Like-named read-outs stand apart in the source and are kept apart here.
What was measured:
[1] = system: vancomycin resistant E. faecalis (VRE); details: absence of polysorbate-80; ref. 2 (Van), ref. 5 (Rist, CE), ref. 9 (Ori), supplementary references; cited from earlier work
VSR (Ac-VSR) in solution = details: VSR in solution; ref. 1 (Van, Rist), ref. 7 (CE), ref. 2 (Ori), supplementary references; read-out: Ksurf Solution; cited from earlier work
[2] = ligand-ligand dissociation constant in solution; ref. 2 (Van, CE, Ori), ref. 5 (Rist), supplementary references; read-out: K1 Solution (complex aggregation constant); cited from earlier work
[3] = system: vancomycin susceptible E. faecalis (VSE); details: absence of polysorbate-80; ref. 9 (Van, CE, Ori), ref. 10 (Rist), supplementary references; cited from earlier work
[4] = system: methicillin-susceptible Staphylococcus aureus (MSSA) ATCC 29213; assay: MIC by broth microdilution (CLSI M07-A8), with PS80; assay type: cell-based; details: MSSA ATCC 29213, with PS80
Method: Determination of MIC values to methicillin-susceptible Staphylococcus aureus (MSSA).
Minimum Inhibitory Concentration (MIC) is defined as the lowest concentration of antibacterial agent required to inhibit growth of a microorganism after incubation. The antibiotics vancomycin (Van) and ristomycin (Rist) were obtained from Sigma-Aldrich while chloroeremomycin (CE) and oritavancin (Ori) were obtained from the Medicine Company Inc., U.S.A. To prepare antibiotic stock solutions for MICs assay, 5 mg/ml of each drug was dissolved in water containing an appropriate volume of 0.002% polysorbate-80 or PS80 obtained from Sigma-Aldrich which corresponds to 20 µM to eliminate nonspecific interactions of drugs to surfaces particularly for Ori which is known to bind to glass and plastics13. Microbiological broth with PS80 maintained at 20 µM was used in the drug dilution steps until the required final (assay) concentration. Diluted concentrations of each drug were assayed by adding an inoculum of methicillin-susceptible Staphylococcus aureus (MSSA) ATCC 29213 cells and the MIC determined by broth microdilution according to Clinical Laboratory Standards Institute (CLSI) methodology M07-A8 (CLSI 2009a)14. The results as shown in Supplementary Table S2 for each antibiotic against clinical isolate of MSSA ATCC 29213 strains conducted in the presence of […]
PS80 are within the quality control ranges defined in the guideline15. […]

VRR in solution = details: ref. 1 (Van), ref. 6 (Rist), ref. 8 (CE), ref. 2 (Ori), supplementary references, read-out: Ksurf Solution; cited from earlier work
[5] = target: vancomycin-resistant receptor (VRR); details: ref. 3 (Van), ref. 5 (Rist), ref. 4 (CE), supplementary references, read-out: Ksurf SPR; cited from earlier work
[6] = target: vancomycin-susceptible receptor (VSR); details: ref. 4 (Rist), ref. 3 (CE), supplementary references, read-out: Ksurf SPR; cited from earlier work
[7] = target: vancomycin-susceptible receptor (VSR); assay: Cantilever surface stress assay, antibiotic binding to surface-bound VSR
Text: (§1) To probe different pathways of signal-transduction central to the efficacy of recognition mechanisms and therapeutic agents, we used cantilever force-based technology. Because of its nanometre strain sensitivity, this technology can directly measure the smallest changes in mechanical strain caused by specific antibiotic binding. The principles of force transduction and measurements are well established[18][19][20] and many studies focused on cantilever sensors have been published. Unlike conventional methods such as 1H–NMR spectroscopy, enzyme-linked immunosorbent assays (ELISA)[29] or surface plasmon resonance (SPR)[30] which measure optical signatures of chemical binding, cantilever technology has the capacity to resolve forces at the level of individual hydrogen bonds, making it uniquely suited to provide important insight into force transduction mechanisms, such as cell wall strain in response to antibiotic binding. Moreover, in contrast to direct current or low-frequency signals, which cannot probe beyond electrical double layers formed by screening salts, mechanical signaling is sensitive to ligands even when they are located at distance of ~1 nm or more from the sensor surface (Fig. 1d). Measurements were performed using cantilevers functionalized with self-assembled monolayers (SAM) of VSR, VRR or reference polyethylene glycol (PEG) (see methods & materials, Supplementary Information). The specificity of mechanical signaling was achieved by performing measurements in differential mode, where the bending response of the reference PEG-coated cantilevers, (known to reduce nonspecific drug adsorption[8][14][34]) was subtracted from VSR- and VRR-coated cantilever signals (see cantilever measurement procedure, method section).
(§2) Thus far, we have discussed the impact of near-membrane layer on the association kinetics, mechanical force transduction, specificity of molecular recognition and microbial susceptibility. To gain mechanistic insight (Fig. 7a,b), we averaged measurements for each drug-target interaction over four separate chips and the results are summarized in Fig. 7c,d. […] The mechanical signaling response follows an s-shaped curve undergoing its steepest rise at N ~1/Ksurf before reaching a plateau when the binding sites are fully occupied (Fig. 7c,d). To calculate Ksurf, we used equation (2)[14], based on the conventional Hill adsorption model.
(§3) Here, Ksurf is raised to the power n to ensure that it maintains the dimension of concentration as n varies. Setting n = 1 yields the Langmuir isotherm where the reactions occur independently, while n > 1 corresponds to positive co-operative polyvalent interactions and n < 1 is a measure of negative co-operativity. In Fig. 7c,d, we find that the mechanical response at VSR levels off at 50 μM concentration for all antibiotics. In contrast, for the drug-resistant VRR a concentration of more than 1000 μM of Van, Rist or CE was required to reach indistinguishable maximum signals. The outcome of the fit using three parameters (n, Ksurf and σmax) is summarized in Supplementary Fig. 2. The calculated Ksurf for Ori binding to VSR is 40 ± 10 nM, which is 25 times stronger than for Van where Ksurf is 1.0 ± 0.3 μM. The Ksurf of Ori against VRR is 70 ± 10 nM, an astonishing 11,000 times stronger than for Van where Ksurf is 800 ± 300 μM. As a further measurement control and to confirm the accuracy of surface binding affinity, we used a commercially available SPR method (Fig. 7e,f and Supplementary SPR sensor chip functionalization procedure), where the detection of ligands is at a single planar metal surface.
(§4) The modified cantilever chip was mounted in a sealed liquid cell. The alignment of each light source onto the free end of each cantilever was confirmed by heating liquid chamber to 1 °C rise. […]

[8] = system: vancomycin-resistant receptor (VRR); assay: Cantilever surface stress assay, antibiotic binding to surface-bound VRR
Text: as §1, §2, §3, §4

Q: With ristomycin as the substance, how does the “MIC VRE” value [1] read?
A: 512 µg/mL

Q: What about the Kd (VSR (Ac-VSR) in solution) of the same substance?
A: 1.7 µM

Q: And the Kd [2]?
A: 3000 µM

Q: And the “MIC VSE” value [3]?
A: 12.5 µg/mL

Q: What about the MIC [4] of the same substance?
A: 8.0 µg/mL

Q: What about the MIC ([4]; converted from mg/l) of the same substance?
A: 3.69 µM

Q: What about the Kd (VRR in solution) of the same substance?
A: 3850 µM

Q: And the Kd [5]?
A: 6.7 µM

Q: And the Kd [6]?
A: 0.2 µM

Q: And the Kd ([7]; VSR on cantilever, fit of equation (2), pH 7.4 sodium phosphate buffer, read-out: Ksurf Cantilever (surface equilibrium dissociation constant))?
A: 0.9 ± 0.5 µM

Q: What about the “maximum stress data, Mean” value ([7]; VSR, 4 chips, one-way ANOVA table S5) of the same substance?
A: 34.5

Q: What about the “Mean difference of stress, VSR versus VRR” value ([7]; independent samples t-test, 4 chips, table S6) of the same substance?
A: 27.0

Q: What about the compressive surface stress ([8]; 10 μM antibiotic against VRR) of the same substance?
A: ~ 2 mNm^−1

Q: And the “concentration required to reach indistinguishable maximum signals” value ([8]; VRR)?
A: more than 1000 μM

Q: And the Kd ([8]; VRR on cantilever, fit of equation (2), pH 7.4 sodium phosphate buffer, read-out: Ksurf Cantilever (surface equilibrium dissociation constant))?
A: 32 ± 17 µM

Q: And the “maximum stress data, Mean” value ([8]; VRR, 4 chips, one-way ANOVA table S4)?
A: 7.5
